Data published in PubChem BioAssay AID2060615 (Molecular Pharmacology Branch, DTP, NCI, 2025).

System: 496974-208-R-J2-PDC complex spheroids, growth % test/control
Experiment: Anticancer human tumor 496974-208-R-J2-PDC patient-derived pancreatic carcinoma cell line growth inhibition [CLK]
Settings: for IC50: curve of first compound; for viability, T/C: stronger effect = lower value
In short: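 Patient-derived tumor cells grown as complex spheroids with HUVEC endothelial cells and mesenchymal stem cells, treated with drug combinations. Concentrations descend in half-log steps from near clinical Cmax, or from 10 microM if Cmax unknown.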

[1] = second compound 0.0316 µM, first compound 0.0316 µM
[2] = second compound 0.0316 µM, first compound 0.1 µM
[3] = second compound 0.0316 µM, first compound 0.316 µM
[4] = second compound 0.0316 µM, first compound 1 µM
[5] = second compound 0.0316 µM, first compound 3.16 µM
[6] = second compound 0.0316 µM, first compound 10 µM
[7] = second compound 0.1 µM, first compound 0.0316 µM
[8] = second compound 0.1 µM, first compound 0.1 µM
[9] = second compound 0.1 µM, first compound 0.316 µM
[10] = second compound 0.1 µM, first compound 1 µM
[11] = second compound 0.1 µM, first compound 3.16 µM
[12] = second compound 0.1 µM, first compound 10 µM
[13] = second compound 0.316 µM, first compound 0.0316 µM
[14] = second compound 0.316 µM, first compound 0.1 µM
[15] = second compound 0.316 µM, first compound 0.316 µM
[16] = second compound 0.316 µM, first compound 1 µM
[17] = second compound 0.316 µM, first compound 3.16 µM
[18] = second compound 0.316 µM, first compound 10 µM
[19] = second compound 1 µM, first compound 0.0316 µM
[20] = second compound 1 µM, first compound 0.1 µM
[21] = second compound 1 µM, first compound 0.316 µM
[22] = second compound 1 µM, first compound 1 µM
[23] = second compound 1 µM, first compound 3.16 µM
[24] = second compound 1 µM, first compound 10 µM
[25] = second compound 3.16 µM, first compound 0.0316 µM
[26] = second compound 3.16 µM, first compound 0.1 µM
[27] = second compound 3.16 µM, first compound 0.316 µM
[28] = second compound 3.16 µM, first compound 1 µM
[29] = second compound 3.16 µM, first compound 3.16 µM
[30] = second compound 3.16 µM, first compound 10 µM
[31] = second compound 10 µM, first compound 0.0316 µM
[32] = second compound 10 µM, first compound 0.1 µM
[33] = second compound 10 µM, first compound 0.316 µM
[34] = second compound 10 µM, first compound 1 µM
[35] = second compound 10 µM, first compound 3.16 µM
[36] = second compound 10 µM, first compound 10 µM
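Further: spheroids exposed to the drugs for 7 days before readout.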
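Wherever viability, T/C is given: 100% = DMSO vehicle control wells.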

CC1(C)CCC(CN2CCN(c3ccc(C(=O)NS(=O)(=O)c4ccc(NCC5CCOCC5)c([N+](=O)[O-])c4)c(Oc4cnc5[nH]ccc5c4)c3)CC2)=C(c2ccc(Cl)cc2)C1 + CNC(=O)c1ccc(Nc2nc(OC3CCCC3)c3c(-c4ccc5nc(C)oc5c4)c[nH]c3n2)c(OC)c1
IC50 (second compound 0.0316 µM): 8.41 µM
IC50 (second compound 0.1 µM): 7.09 µM
IC50 (second compound 0.316 µM): 9.3 µM
IC50 (second compound 1 µM): 5.67 µM
IC50 (second compound 3.16 µM): 4.11 µM
IC50 (second compound 10 µM): 3.9 µM
viability, T/C [1]: 87.7%
viability, T/C [2]: 93.6%
viability, T/C [3]: 86.4%
viability, T/C [4]: 92.4%
viability, T/C [5]: 84.4%
viability, T/C [6]: 43.8%
viability, T/C [7]: 75.1%
viability, T/C [8]: 73.3%
viability, T/C [9]: 76.8%
viability, T/C [10]: 82.8%
viability, T/C [11]: 72.8%
viability, T/C [12]: 39.9%
viability, T/C [13]: 75.8%
viability, T/C [14]: 76.2%
viability, T/C [15]: 73.6%
viability, T/C [16]: 85.3%
viability, T/C [17]: 71%
viability, T/C [18]: 48.5%
viability, T/C [19]: 71%
viability, T/C [20]: 71.7%
viability, T/C [21]: 73.5%
viability, T/C [22]: 67.3%
viability, T/C [23]: 61.1%
viability, T/C [24]: 39.5%
viability, T/C [25]: 59.5%
viability, T/C [26]: 56.2%
viability, T/C [27]: 61.5%
viability, T/C [28]: 62.5%
viability, T/C [29]: 52.6%
viability, T/C [30]: 35.5%
viability, T/C [31]: 55.8%
viability, T/C [32]: 55.2%
viability, T/C [33]: 54.3%
viability, T/C [34]: 50.1%
viability, T/C [35]: 54.4%
viability, T/C [36]: 32.9%

CC1COCCN1c1cc(C2(S(C)(=N)=O)CC2)nc(-c2ccnc3[nH]ccc23)n1 (stereo unspecified) + CNC(=O)c1ccc(Nc2nc(OC3CCCC3)c3c(-c4ccc5nc(C)oc5c4)c[nH]c3n2)c(OC)c1
IC50 (second compound 0.0316 µM): 6.5 µM
IC50 (second compound 0.1 µM): 5.52 µM
IC50 (second compound 0.316 µM): 4.78 µM
IC50 (second compound 1 µM): 2.15 µM
IC50 (second compound 3.16 µM): 0.953 µM
IC50 (second compound 10 µM): 0.971 µM
viability, T/C [1]: 101%
viability, T/C [2]: 98.3%
viability, T/C [3]: 91.2%
viability, T/C [4]: 83.2%
viability, T/C [5]: 62.8%
viability, T/C [6]: 42.1%
viability, T/C [7]: 87.2%
viability, T/C [8]: 78.4%
viability, T/C [9]: 77.1%
viability, T/C [10]: 74.4%
viability, T/C [11]: 53.5%
viability, T/C [12]: 43%
viability, T/C [13]: 72.6%
viability, T/C [14]: 69.3%
viability, T/C [15]: 79%
viability, T/C [16]: 80%
viability, T/C [17]: 56.4%
viability, T/C [18]: 38.7%
viability, T/C [19]: 73.8%
viability, T/C [20]: 66.8%
viability, T/C [21]: 71%
viability, T/C [22]: 62.8%
viability, T/C [23]: 43.5%
viability, T/C [24]: 32.6%
viability, T/C [25]: 63.7%
viability, T/C [26]: 63.2%
viability, T/C [27]: 54.6%
viability, T/C [28]: 52.5%
viability, T/C [29]: 36.9%
viability, T/C [30]: 27.6%
viability, T/C [31]: 51.8%
viability, T/C [32]: 58%
viability, T/C [33]: 54.5%
viability, T/C [34]: 49.8%
viability, T/C [35]: 31.9%
viability, T/C [36]: 21.8%

Cn1ncnc1[C@H]1c2n[nH]c(=O)c3cc(F)cc(c23)N[C@@H]1c1ccc(F)cc1 + CNC(=O)c1ccc(Nc2nc(OC3CCCC3)c3c(-c4ccc5nc(C)oc5c4)c[nH]c3n2)c(OC)c1
IC50 (second compound 0.0316 µM): > 0.1 µM
IC50 (second compound 0.1 µM): > 0.1 µM
IC50 (second compound 0.316 µM): > 0.1 µM
IC50 (second compound 1 µM): > 0.1 µM
IC50 (second compound 3.16 µM): > 0.1 µM
IC50 (second compound 10 µM): > 0.1 µM
viability, T/C (second compound 0.0316 µM, first compound 0.000316 µM): 103%
viability, T/C (second compound 0.0316 µM, first compound 0.001 µM): 110%
viability, T/C (second compound 0.0316 µM, first compound 0.00316 µM): 95%
viability, T/C (second compound 0.0316 µM, first compound 0.01 µM): 100%
viability, T/C [1]: 98.2%
viability, T/C [2]: 85.7%
viability, T/C (second compound 0.1 µM, first compound 0.000316 µM): 77%
viability, T/C (second compound 0.1 µM, first compound 0.001 µM): 83.3%
viability, T/C (second compound 0.1 µM, first compound 0.00316 µM): 83.1%
viability, T/C (second compound 0.1 µM, first compound 0.01 µM): 94.6%
viability, T/C [7]: 74.6%
viability, T/C [8]: 78%
viability, T/C (second compound 0.316 µM, first compound 0.000316 µM): 82%
viability, T/C (second compound 0.316 µM, first compound 0.001 µM): 84%
viability, T/C (second compound 0.316 µM, first compound 0.00316 µM): 99.9%
viability, T/C (second compound 0.316 µM, first compound 0.01 µM): 80.4%
viability, T/C [13]: 78.3%
viability, T/C [14]: 67.9%
viability, T/C (second compound 1 µM, first compound 0.000316 µM): 72.4%
viability, T/C (second compound 1 µM, first compound 0.001 µM): 73.5%
viability, T/C (second compound 1 µM, first compound 0.00316 µM): 68.9%
viability, T/C (second compound 1 µM, first compound 0.01 µM): 76.7%
viability, T/C [19]: 74.9%
viability, T/C [20]: 65%
viability, T/C (second compound 3.16 µM, first compound 0.000316 µM): 69.3%
viability, T/C (second compound 3.16 µM, first compound 0.001 µM): 62.8%
viability, T/C (second compound 3.16 µM, first compound 0.00316 µM): 57.4%
viability, T/C (second compound 3.16 µM, first compound 0.01 µM): 61.5%
viability, T/C [25]: 67.2%
viability, T/C [26]: 65%
viability, T/C (second compound 10 µM, first compound 0.000316 µM): 55.5%
viability, T/C (second compound 10 µM, first compound 0.001 µM): 55%
viability, T/C (second compound 10 µM, first compound 0.00316 µM): 55.7%
viability, T/C (second compound 10 µM, first compound 0.01 µM): 54.1%
viability, T/C [31]: 54.2%
viability, T/C [32]: 52.7%
